Test results published in patent US7038028B1, “Gene encoding promoter domain of tumor suppressor gene P51 and use thereof” (Toshiyuki Sakai, priority 1999, dated 2006).
“Also recorded” adds a separate entry of the source.

What was measured:
Assay type in all cases: cell-based, human
p51A mRNA = assay: Northern blotting of the amount of p51 expressed in HCT116 cells after stimulation with drugs; details: 24 hours treatment, 1 μg/ml trichostatin A, Northern blotting of 20 μg RNA
Method: A variety of stimulations including stimulation with a drug were applied to a cell line HCT116 derived from colon cancer to investigate changes in the amount expressed of p51 by Northern blotting. 200,000 cells of HCT116 cells were plated on a culture dish with a diameter of 60 mm, and cultured in the presence of 5% carbon dioxide at 37° C. for two days. The medium used was McCOY's 5A (manufactured by Nisseiken) to which fetal bovine serum (FBS) was added to a final concentration of 10% (referred to hereinafter as McCOY's 5A/10% FBS). Then it was treated with A23187 (0.1 μM, 1 μM), cisplatin (1 μg/ml, 10 μg/ml), CPTcAMP (0.1 μM, 1 μM), etoposide (10 μg/ml, 0.1 μg/ml), genistein (1 μM, 10 μM), ML-236B (1 μg/ml, 10 μg/ml), milurinone (1 μM, 10 μM), mitomycin C (5 μg/ml, 50 μg/ml), NKH477 (0.1 μM, 1 μM), okadaic acid (1 nM, 10 nM), radicicol (0.1 μg/ml, 1 μg/ml), staurosporin (1 nM, 10 nM), taxol (1 μg/ml, 10 μg/ml), trichostatin A (0.1 μg/ml, 1 μg/ml), radiation (50 J/m^2, 100 J/m^2), vitamin D3 (10 nM, 100 nM), vincristine (1 μg/ml, 10 μg/ml), and wortmannin (0.1 μM, […]), and further cultured in the presence of 5% carbon dioxide at 37° C. for 24 hours. Then, from the cells, RNA was prepared using ISOGEN (manufactured by Nippongene). […] Then, the membrane was analyzed on autoradiography.

p51 promoter [1] = assay: Luciferase reporter assay in HCT116 cells transiently transfected with pGL2-neo/p51 promoter; details: HCT116, 1 μg/ml trichostatin A vs 0, 24 hours
Method: Subsequently, the following experiment was carried out in order to perform functional analysis of the p51 promoter region. 200,000 cells of HCT116 were plated on a culture dish with a diameter of 60 mm. The medium used was McCOY's 5A/10% FBS. These were cultured in the presence of 5% carbon dioxide at 37° C. for 48 hours. The medium was replaced with McCOY's 5A containing no serum. Subsequently, 2 μg each of pGL2-neo/p51 promoter or pGL2-neo vector was introduced. The plasmid was introduced using the lipofectamine plus reagent (manufactured by GIBCO BRL). Thus, 125 μl of McCOY's 5A and 8 μl of the plus solution were added to the plasmid solution, stirred well, and then incubated at room temperature for 15 minutes. To this solution, 125 μl of McCOY's 5A and 12 μl of lipofectamine solution were added, stirred well, and then incubated at room temperature for further 15 minutes. This was added to the HCT116 cells incubated by the above procedure, gently mixed, and cultured in the presence of 5% carbon dioxide at 37° C. for three hours to introduce plasmid. Subsequently, the medium was replaced with McCOY's 5A/10% FBS, and cultured in the presence of 5% carbon dioxide at 37° C. for 21 hours. […] For these cells, the luciferase activity was determined to investigate promoter activity. […] The luciferase activity was determined according to the following method. […]

p51 promoter [2] = assay: Luciferase assay in geneticin-selected HCT116/p51 promoter clones
Method: The medium in the cell culture dish was removed, and 5 ml of the cell lysis reagent (25 mM Tris-HCl, pH 7.8, 2 mM dithiothreitol, 2 mM CDTA, 0.2% triton X-100, 10% glycerol) was added and incubated at room temperature for 15 minutes.
As the plasmid-introduced cells, the HCT116 cell line was used. 500,000 cells of HCT116 cell were plated on a cuture dish with a diameter of 60 mm. The medium used was McCOY's 5A/10% FBS. These were cultured in the presence of 5% carbon dioxide at 37° C. for 48 hours. The medium was replaced with McCOY's 5A containing no serum. As the plasmid for introduction, two μg of pGL2-neo/p51 promoter was dissolved in 4 μl of the TE solution to prepare a plasmid solution. The plasmid was introduced using the lipofectamine plus reagent (manufactured by GIBCO BRL). Thus, 125 μl of McCOY's 5A and 8 μl of the plus solution were added to the plasmid solution, stirred well, and then incubated at room temperature for 15 minutes. To this solution, 125 μl of McCOY's 5A and 12 μl of the lipofectamine solution were added, stirred well, and then incubated at room temperature for further 15 minutes. This was added to the HCT116 cells cultured by the above procedure, gently mixed, and incubated in the presence of 5% carbon dioxide at 37° C. for three hours to permit the introduction of the plasmid. Subsequently, the medium was replaced with McCOY's 5A/10% FBS, and incubated in the presence of 5% carbon dioxide at 37° C. for 21 hours. Then, the cells were recovered from the culture dish with PBS containing 0.25% trypsin and 0.02% EDTA, and 1% amount thereof was plated onto a culture dish with a diameter of 100 mm. It was further cultured in McCOY's 5A/10% FBS medium in the presence of 5% carbon dioxide at 37° C. for further 72 hours, and then 1.2 mg/ml of geneticin (manufactured by Nacalai Tesque) was added as a selection drug. By replacing the medium every three days, and further culturing in the above condition for further two weeks, the cells into whose genes the plasmid gene was introduced, and became geneticin-resistant, were selected. Subsequently, 50 clones were isolated from the cell group that formed colonies on the dish, and were plated on a 24-well culture dish to continue being cultured.
Thus, the reactivity of these clones to trichostatin A was investigated by the following procedure. 500,000 cells each of the cloned cells were plated on a cuture dish with a diameter of 60 mm. The medium used was McCOY's 5A/10% FBS. These were cultured in the presence of 5% carbon dioxide at 37° C. for 48 hours. Then, trichostatin A was added to the two groups of cells to a final concentration of 0 or 0.1 μg/ml, and cultured in the presence of 5% carbon dioxide at 37° C. for 24 hours. For these cells, their luciferase activity was determined to examine the effect on the p51 promoter activity. The luciferase activity was determined according to the above method.

measured values of luciferase activity, clone #5 (p51 promoter [2]; HCT116/p51 promoter clone #5, with TsA 0.1 μg/ml, 24 hours (without TsA 3.9)): 29.5 | measured values of luciferase activity, clone #9 (p51 promoter [2]; HCT116/p51 promoter clone #9, with TsA 0.1 μg/ml, 24 hours (without TsA 1.0)): 33.3 | measured values of luciferase activity, clone #17 (p51 promoter [2]; HCT116/p51 promoter clone #17, with TsA 0.1 μg/ml, 24 hours (without TsA 17.0)): 44.1 | measured values of luciferase activity, clone #18 (p51 promoter [2]; HCT116/p51 promoter clone #18, with TsA 0.1 μg/ml, 24 hours (without TsA 6.8)): 14.0
Structure (SMILES): CC(/C=C/C(=O)NO)=C\[C@@H](C)C(=O)c1ccc(N(C)C)cc1 [trichostatin A]
amount of p51A mRNA (specific band that reacts with p51A-derived cDNA) (p51A mRNA): transactivates p51; also recorded: specific band that reacts with p51A-derived cDNA was only observed | luciferase activity (fluorescence/chemiluminescence intensity) of pGL2-neo/p51 promoter-introduced cells (p51 promoter [1]): further remarkably enhanced; also recorded: markedly enhanced | luciferase activity of cloned cells (p51 promoter [2]; several clones, 0.1 μg/ml trichostatin A, 24 hours): significantly enhanced luciferase activity
